These results are taken from PMC10826971, “Evaluating protein cross-linking as a therapeutic strategy to stabilize SOD1 variants in a mouse model of familial ALS” (PLOS Biology, 2024).

In brackets after ≈: the same amount, converted by molar mass.

One data set can be described thus: Maximum solubility. The format is physicochemical. As to conditions: pH 7.4, aqueous buffer.
The next data set is described as follows: in vivo. As to conditions: C57BL/6, mouse. As to the method: (§1) Any clinical abnormalities including but not limited to ruffled fur, unstable gait, severe lethargy, and mortality was observed after dosing. The post-dose washout period was maintained for 48 h for both PO, IV, and SC route of administration.
The next data set has as its system C57BL/6 mice. Kind of data set: in vivo. As to conditions: mouse. As to the method: as §1
A short description of data set [1]: Blood-brain barrier penetration. The format is in vivo, mouse.
The nature of data set [2]: MTT cell viability/cytotoxicity assay. It counts as cell-based. The note with it: human, Hep G2 cells. As to the method:
The Hep G2 human hepatocarcinoma cell line (American Type Culture Collection, ATCC, Manassas, Virginia, USA) was cultured using EMEM (Eagle’s minimal essential medium, ATCC) supplemented with 10% FBS (fetal bovine serum, ATCC) and 1% penicillin streptomycin as previously described (10,000 units/mL penicillin and 10,000 μg/mL streptomycin, Fisher scientific, Hampton, New Hampshire, USA). The cells were grown and subcultured around 72 h at 37°C, 5% CO2 under controlled humidity. The cells growth and morphology were inspected using an inverted Carl Zeiss microscope (Carl Zeiss Microscopy LLC, White Plains, New York, USA).
Using manufacturer’s instructions, Hep G2 cells were cultured for 24 h with a density of 2 × 10^5 cells/mL in a 96-well culture plate at 37°C, 5% CO2 under controlled humidity. […] Cell cytotoxicity was performed via the MTT (3-(4,5-dimethylthiazol-2-yl)-2,5-diphenyltetrazolium bromide) assay at 570 nm absorbance using BioTek synergy H1 (Vermont, USA) plate reader according to previously published paper. The MTT stock was made at 5 mg/mL using 0.9% sodium chloride solution which was purchased from Sigma Aldrich (St. Louis, Missouri, USA). Twenty-four hours after dosing the plate, the cultured medium was aspirated and replaced with the equal volume of MTT solution (10× dilution using EMEM complete media). The plate was incubated for 4 h (37°C, 5% CO2). The MTT solution was replaced by the equal amount of acidified isopropanol (0.3% hydrochloric acid (v/v)) and then formed formazan was dissolved by shaking the plate gently for 30 min. The absorbance was measured at 570 nm for both the samples and acidified isopropanol for background calculation. Chlorpromazine and cells with 0.1% DMSO were used as positive control and vehicle, respectively. The cell viability of each concentration was measured by normalizing against mean value of cells with 0.1% DMSO (vehicle).

The target in another data set is wild-type SOD1 (Homo sapiens, UniProt P00441). Kind of data set: SOD1 cross-linking in Hep G2 cells, SDS-PAGE and western blot. The format is cell-based. The note with it: Hep G2 cells in PBS buffer, 30 min. As to the method:
The Hep G2 human hepatocarcinoma cell line (American Type Culture Collection, ATCC, Manassas, Virginia, USA) was cultured using complete EMEM (Eagle’s minimal essential medium, ATCC) media including 10% FBS (fetal bovine serum, ATCC) and 1% penicillin streptomycin (10,000 units/mL penicillin and 10,000 μg/mL streptomycin, Fisher Scientific, Hampton, New Hampshire, USA). Cells were counted and checked for morphology using an inverted Carl Zeiss microscope (Carl Zeiss Microscopy LLC, White Plains, New York, USA). A 96-well plate (Corning Life Sciences, Tewksbury, Massachusetts, USA) was used for culturing cells at 0.2 mill/mL concentration for 24 h at 37°C, 5% CO2 under controlled humidity for western blot experiment. […] Wild-type SOD1 purified from human erythrocyte (Sigma Aldrich, St. Louis, Missouri, USA) was used as positive control (standard) in the experiment. The growth buffer was aspirated and replaced with 30 μL of lysis buffer (150 mM NaCl, 1% Triton X-100, 0.5% sodium deoxycholate, 0.1% SDS, and 50 mM Tris (pH 8.0), all chemicals were purchased from Sigma Aldrich (St. Louis, Missouri, USA)) and incubated for 10 min followed by addition of non-reducing sample buffer. […]

For data set [3], the system named is alpha 1-acid glycoprotein. The format is in vitro ADME.

wild-type SOD1, sequence (P00441 2-154 limits assumed): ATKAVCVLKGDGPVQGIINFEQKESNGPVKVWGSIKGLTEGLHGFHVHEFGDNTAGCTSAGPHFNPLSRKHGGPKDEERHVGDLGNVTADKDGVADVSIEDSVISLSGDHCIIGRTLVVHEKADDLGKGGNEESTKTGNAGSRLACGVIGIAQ

For the compound `[O-][S+]1CCCCS1` (stereo not drawn) [S-XL6, 1,2-dithiane-1-oxide], in the data set “Maximum solubility”, the concentration in solution (solubility) was 360 mM (≈ 49 mg/mL). Also, the 50% lethal dose (LD50) – broadly, the dose at which mortality reaches 50% – at 48 h in “in vivo” (iv) was determined as 75 mg/kg; in the data set “in vivo” (po), 1000 mg/kg; in the data set “in vivo” (sc), 275 mg/kg. Further, the “mortality in up-down study” value in the data set on C57BL/6 mice (iv, 55 mg/kg) is listed as “One mouse died”; with C57BL/6 mice (iv, 60 mg/kg) it was “another mouse died”; in the data set on C57BL/6 mice (sc, 60 mg/kg), “one mouse died”. Moreover, the “blood–brain barrier crossing” value in data set [1] (fALS mouse model) is reported as “crosses the blood–brain barrier”. In addition, in data set [1] (transgenic SOD1^G93A, mouse, brain/blood, subcutaneous, 30 mg/kg), the log BB at 1 h worked out at 0.02. In addition, the Kp at 1 h in data set [1] (transgenic SOD1^G93A, mouse, brain/blood, subcutaneous, 30 mg/kg, read-out: % BBB penetration) came to 0.0002. Further, the viability at 24 h, 10 µM in data set [2] (10 µM, read-out: viable cells compared to vehicle control (MTT)) was determined as 125%. Moreover, the viability at 24 h, 100 µM in data set [2] (100 µM, read-out: viable cells compared to vehicle control (MTT)) worked out at 102%. In data set [2] (150 µM, read-out: viable cells compared to vehicle control (MTT)), the viability at 24 h, 150 µM worked out at 90%. Further, in data set [2] (250 µM, read-out: viable cells compared to vehicle control (MTT)), the viability at 24 h, 250 µM came out at 79%. In addition, the viability at 24 h, 400 µM in data set [2] (400 µM, read-out: viable cells compared to vehicle control (MTT)) came out at 72%. In addition, the viability at 24 h, 600 µM in data set [2] (600 µM, read-out: viable cells compared to vehicle control (MTT)) was determined as 15%. Further, the viability at 24 h, 800 µM in data set [2] (800 µM, read-out: viable cells compared to vehicle control (MTT)) is 14%. For the same compound, the viability at 24 h, 1000 µM in data set [2] (1000 µM, read-out: viable cells compared to vehicle control (MTT)) was determined as 14%. Also, the CC50 at 24 h in data set [2] (MTT, read-out: Cytotoxicity LC50) was roughly 446 µM. At wild-type SOD1, the concentration for a half-maximal effect (EC50) (in general, the concentration giving half of the maximal effect) was roughly 5 µM. For the same compound, the “binding to purified protein” value in data set [3] is on record as “not bound”.
